Assay [1] has as its target T1, Mouse TMEM16A (Mus musculus, UniProt Q8BHY3).
T1 construct: expressed in transfected cells; host or cells: HEK-293T
T1 sequence (Q8BHY3 1-960): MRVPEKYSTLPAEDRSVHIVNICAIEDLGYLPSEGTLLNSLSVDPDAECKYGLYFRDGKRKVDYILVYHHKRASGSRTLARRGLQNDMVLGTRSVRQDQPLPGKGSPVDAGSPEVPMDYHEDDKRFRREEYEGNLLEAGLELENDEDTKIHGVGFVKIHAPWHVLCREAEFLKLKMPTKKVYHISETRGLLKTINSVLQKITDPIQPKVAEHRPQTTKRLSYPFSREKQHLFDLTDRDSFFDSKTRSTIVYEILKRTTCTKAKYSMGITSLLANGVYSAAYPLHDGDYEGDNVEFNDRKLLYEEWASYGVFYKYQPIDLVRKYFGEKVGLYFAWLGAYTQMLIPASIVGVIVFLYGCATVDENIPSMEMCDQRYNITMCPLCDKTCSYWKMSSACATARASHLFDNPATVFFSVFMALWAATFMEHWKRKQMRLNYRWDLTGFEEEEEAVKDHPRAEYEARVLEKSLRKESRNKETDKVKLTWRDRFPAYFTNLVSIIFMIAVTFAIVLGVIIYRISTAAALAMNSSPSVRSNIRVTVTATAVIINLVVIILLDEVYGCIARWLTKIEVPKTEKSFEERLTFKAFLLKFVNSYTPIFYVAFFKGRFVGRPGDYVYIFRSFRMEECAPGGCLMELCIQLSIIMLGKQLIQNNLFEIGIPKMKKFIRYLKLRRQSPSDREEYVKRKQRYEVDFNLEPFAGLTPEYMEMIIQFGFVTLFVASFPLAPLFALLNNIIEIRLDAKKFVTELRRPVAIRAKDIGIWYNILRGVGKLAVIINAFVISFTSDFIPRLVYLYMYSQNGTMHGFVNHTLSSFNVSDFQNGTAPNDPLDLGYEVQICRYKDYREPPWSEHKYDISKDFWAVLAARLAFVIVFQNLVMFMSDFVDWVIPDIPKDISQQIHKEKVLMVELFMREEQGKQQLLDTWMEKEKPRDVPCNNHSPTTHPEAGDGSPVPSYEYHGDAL
Put plainly: Non-stationary noise analysis of whole-cell TMEM16A tail currents. Format: cell-based. The settings on record: −70 mV tail pulse, 300 nM [Ca2+]i; for P o: control 0.09 ± 0.02; for single channel current i: control 0.22 ± 0.01. As for the experimental part: For non‐stationary noise analysis (Heinemann and Conti, 1992; Tammaro and Ashcroft, 2007), 80–200 identical pulses to a test potential of −70 mV (filtered at 10 kHz and sampled at 50 kHz) were applied, and the mean response, I, was calculated. The variance, σ ^2, was computed from the average squared difference of consecutive traces. Background variance and current at 0 mV were subtracted, and the variance–mean plot was fit by (4) σ^2=iI−I^2/N,
with the single channel current, i, and the number of channels, N, as free parameters.
Non‐stationary noise analysis was performed in the presence of 300 nM [Ca^2+]i during a tail pulse to −70 mV (Figure 8). In the absence of A9C, the i of TMEM16A was 0.22 ± 0.01 pA (n = 9). In the presence of 100 and 1000 μM [A9C]ext, i was 0.22 ± 0.01 pA (n = 9) and 0.23 ± 0.02 pA (n = 9) respectively. […] In the absence of A9C, the P o of TMEM16A was 0.09 ± 0.02 (n = 9) while in the presence of 100 and 1000 μM [A9C]ext, the P o was 0.41 ± 0.06 (n = 9) and 0.62 ± 0.06 (n = 9) respectively. Thus, extracellular A9C increased TMEM16A channel P o at a fixed V m and [Ca^2+]i.

In assay [2] the target is T1, Mouse TMEM16A. Put plainly: Concentration jump in excised inside-out or outside-out patches, 300 nM [Ca2+]i. Format: cell-based. The settings on record: +70 mV. As for the experimental part: TMEM16A currents were measured with the whole‐cell or inside‐out patch configuration of the patch‐clamp technique as detailed in the Supporting Information. The exchange of solutions was achieved by using a local perfusion system consisting of eight tubes of 1.2 mm diameter in which the tip of the patch pipette was inserted. In some experiments, ultra‐rapid (<50 ms) changes in A9C concentration ([A9C]) (‘concentration jumps’) were achieved using a computer‐controlled perfusion system (Warner Instruments, Hamden, CT, USA).
To examine if intracellular A9C produced an activating effect on TMEM16A currents, concentration jump experiments were performed in the inside‐out configuration of the patch‐clamp technique, with A9C applied intracellularly and in the presence of 300 nM [Ca^2+]i. […] For example, I a/I 0 in the presence of 3000 μM intracellular A9C during inside‐out patches was 1.3 ± 0.1 (n = 5), while extracellular A9C produced a I a/I 0 of 27 ± 4 (n = 5) in outside‐out patches (Figure 6).

In the case of `O=C(O)c1c2ccccc2cc2ccccc12` [A9C, Anthracene‐9‐carboxylic acid], the P o at Mouse TMEM16A [1] (100 μM [A9C]ext) turned out to be 0.41 ± 0.06; on Mouse TMEM16A [1] (1000 μM [A9C]ext) it was 0.62 ± 0.06. For the same molecule, the results for the “single channel current i” value at Mouse TMEM16A [1] (100 μM [A9C]ext) and at Mouse TMEM16A [1] (1000 μM [A9C]ext) were 0.22 ± 0.01 pA and 0.23 ± 0.02 pA, respectively. Besides, the “I a/I 0 (current activation)” value came to 27 ± 4 at Mouse TMEM16A [2] (3000 μM extracellular A9C, outside-out patches) and 1.3 ± 0.1 at Mouse TMEM16A [2] (3000 μM intracellular A9C, inside-out patches).

(Values after paper PMC4728427, “Mechanism of allosteric activation of TMEM16A/ANO1 channels by a commonly used chloride channel blocker” (British Journal of Pharmacology, 2016).)
